Values quoted from earlier work in patent US20240397939A1, “COMPOSITIONS COMPRISING DIFFERENT DRIFT RETARDING AGENTS” (BAYER CROPSCIENCE LP, priority 2021, published 2024).

Conditions: known HLB value, estimation by Griffin's method

| HLB | Substance |
| --- | --- |
| 15 | Polysorbate 80 (polyoxyethylene sorbitan monooleate) [Tween® 80] |
| 4.3 | Sorbitan monooleate [Span® 80] |
